The structures appear in SMILES notation.

Chain of CBP (Q92793 1085-1192): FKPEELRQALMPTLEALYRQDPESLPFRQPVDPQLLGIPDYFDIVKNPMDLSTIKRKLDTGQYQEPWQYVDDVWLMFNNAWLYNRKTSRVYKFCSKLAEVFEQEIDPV

The assay deals with CBP (Homo sapiens (Human), UniProt Q92793). Description: HTRF biochemical assay for CBP activity (TR-FRET, bromodomain). The class given is binding. The settings on record: geometric mean, 10-point 3-fold dilution 33 μM to 1.7 nM, read-out: BROMO IC50 TRF TB CBP (μM gmean). The procedure:
Example 1: HTRF Biochemical Assay for CBP Activity
The assay was performed in a final volume of 6 μL in assay buffer containing 50 mM Hepes (pH 7.5, (0.5M Hepes, pH 7.5 solution; Teknova H1575)), 0.5 mM GSH, 0.01% BGG (0.22 p M filtered, Sigma, G7516-25G), 0.005% BSA (0.22 μM filtered, EMD Millipore Corporation, 126575) and 0.01% Triton X-100 (Sigma, T9284-10L). Nanoliter quantities of 10-point, 3-fold serial dilution in DMSO were pre-dispensed into 1536 assay plates (Corning, #3724BC) for a final test concentration of 33 μM to 1.7 nM, top to lowest dose, respectively. 3 μL of 2×Protein and 3 μL of 2×Peptide Ligand were added to assay plates (pre-stamped with compound). Plates were incubated for varying times at room temperature prior to measuring the signal. TR-FRET (Time-Resolved Fluorescence Resonance Energy Transfer) was measured on the PHERAstar (BMG, equipped with HTRF optic module [337/520/490]) or on the Envision (PerkinElmer, equipped with the TRF Laser unit, TRF dual mirror D400/D505 and emission filters M520 and M495). Data were reported as percent inhibition compared with control wells based on the following equation: % inh=1−((TR-FRET ratio−AveLow)/(AveHigh−AveLow)) where TR-FRET ratio=(Fluorescence at 520 nm/Fluorescence at 490 nm)*10000), AveLow=average TR-FRET ratio of no enzyme control (n=32), and AveHigh=average TR-FRET ratio of DMSO control (n=32). IC50 values were determined by curve fitting of the standard 4 parameter logistic fitting algorithm included in the Activity Base software package: IDBS XE Designer Model205. Data is fitted using the Levenburg Marquardt algorithm. As set forth in Table 2 below, an IC50 value of greater than or equal to 0.001 μM and less than or equal to 0.01 μM is marked “++++”; a value greater than 0.01 μM and less than or equal to 0.1 μM is marked “+++”; a value greater than 0.1 μM and less than or equal to 1 μM is marked “++”; and a value greater than 1 μM and less than 1000 μM is marked “+.” Compounds that were not tested in a particular assay are marked “NT.”
For the compound `COC(=O)N1CCc2ccc3c(nc([C@@H]4CCC[C@@H](C(=O)O)C4)n3C(C)Cc3ccccc3)c2C1` (stereo in doubt) [Compound 99, (1R,3R)-3-[8-(methoxycarbonyl)-3-[(2S)-1-phenylpropan-2-yl]-3H,6H,7H,8H,9H-imidazo[4,5-h]isoquinolin-2-yl]cyclohexane-1-carboxylic acid], the IC50 – broadly, the concentration that inhibits the measured activity by half – lay within 0.001 to 0.01 µM.

Take `COC(=O)N1CCc2ccc3c(nc([C@@H]4CCC[C@@H](C(=O)O)C4)n3C(C)Cc3ccccc3)c2C1` (stereo in doubt) [Compound 298, (1R,3R)-3-[8-(methoxycarbonyl)-3-[(2R)-1-phenylpropan-2-yl]-3H,6H,7H,8H,9H-imidazo[4,5-h]isoquinolin-2-yl]cyclohexane-1-carboxylic acid]: the IC50 lay within 0.1 to 1 µM.

Regarding `COC(=O)N1CCc2ccc3c(nc([C@H]4CC[C@H](OC)CC4)n3C[C@H](C(=O)O)c3ccccc3)c2C1` [Compound 1], the IC50 fell in the range of 0.001 to 0.01 µM.

For the compound `COC(=O)N1CCc2ccc3c(nc(C4CCCCC4)n3C[C@@H](CC(=O)O)c3ccc(F)c(F)c3)c2C1` [Compound 4, (3S)-4-[2-cyclohexyl-8-(methoxycarbonyl)-3H,6H,7H,8H,9H-imidazo[4,5-h]isoquinolin-3-yl]-3-(3,4-difluorophenyl)butanoic acid], the IC50 was in the range of 0.001 to 0.01 µM.

As to `COC(=O)N1CCc2ccc3c(nc([C@H]4CC[C@H](C(=O)O)CC4)n3[C@@H](C)Cc3c(C)cccc3C)c2C1` [Compound 6], the IC50 was in the range of 0.001 to 0.01 µM.

On to `COC(=O)N1CCc2ccc3c(nc([C@H]4CC[C@H](C(=O)O)CC4)n3[C@@H](C)Cc3ccccc3C)c2C1` [Compound 7], for which the IC50 lay in the range of 0.001 to 0.01 µM.

Turning to `COC(=O)N1CCc2ccc3c(nc(C4CCCCC4)n3C[C@@H](CC(=O)O)c3ccccc3)c2C1` [Compound 8], the IC50 was in the range of 0.001 to 0.01 µM.

As for `COC(=O)N1CCc2ccc3c(nc(C4CCCCC4)n3C[C@H](C(=O)O)c3ccc(F)c(OC)c3)c2C1` [Compound 9], the IC50 was 0.001 to 0.01 µM.

Regarding `COC(=O)N1CCc2ccc3c(nc(C4CCCCC4)n3C[C@@H](CC(=O)O)c3ccc(F)c(F)c3)c2C1` [Compound 21], the IC50 lay within 0.001 to 0.01 µM.

With `COC(=O)N1CCc2ccc3c(nc(N4CCCCC4)n3C[C@@H](CC(=O)O)c3ccc(F)c(F)c3)c2C1` [Compound 25], the IC50 fell in the range of 0.001 to 0.01 µM.

For `COC(=O)N1CCc2ccc3c(nc(C4CCCCC4)n3C[C@@H](CC(=O)O)c3cc(F)cc(OC)c3)c2C1` [Compound 35], the IC50 was 0.001 to 0.01 µM.

Consider `COC(=O)N1CCc2ccc3c(nc(C4CCCCC4)n3C[C@H](CC(=O)O)c3cc(F)cc(OC)c3)c2C1` [Compound 36], for which the IC50 was 0.001 to 0.01 µM.

Regarding `COC(=O)N1CCc2ccc3c(nc(C4CCCCC4)n3C[C@H](CC(=O)O)c3cc(F)cc(F)c3)c2C1` [Compound 37], the IC50 fell in the range of 0.001 to 0.01 µM.

`COC(=O)N1CCc2ccc3c(nc(C4CCCCC4)n3C[C@H](C(=O)O)c3ccccc3)c2C1` [Compound 38]: the 50% inhibitory concentration (IC50) fell in the range of 0.001 to 0.01 µM.

For `COC(=O)N1CCc2ccc3c(nc(C4CCCCC4)n3[C@@H](C)CC3CCCC[C@@H]3C(=O)O)c2C1` (stereo partly drawn) [Compound 39], the IC50 fell in the range of 0.001 to 0.01 µM.

As to `COC(=O)N1CCc2ccc3c(nc([C@H]4CC[C@H](C(=O)O)CC4)n3[C@H](C)Cc3ccc(F)c(F)c3)c2C1` [Compound 40], the IC50 was 0.001 to 0.01 µM.

In the case of `COC(=O)N1CCc2ccc3c(nc([C@H]4CC[C@@](C)(C(=O)O)CC4)n3[C@@H](C)Cn3cc(Cl)cn3)c2C1` [Compound 41], the IC50 lay within 0.001 to 0.01 µM.

As to `COC(=O)N1CCc2ccc3c(nc([C@H]4CC[C@H](C(=O)O)CC4)n3[C@@H](C)Cc3ccccc3Cl)c2C1` [Compound 42], the IC50 is 0.001 to 0.01 µM.

Consider `COC(=O)N1CCc2ccc3c(nc([C@H]4CC[C@H](C(=O)O)CC4)n3[C@@H](C)Cc3ccc(F)c(OC)c3)c2C1` [Compound 43], for which the IC50 is 0.001 to 0.01 µM.

For the compound `COC(=O)N1CCc2c([C@@H]3CCOC3)cc3c(nc([C@H]4CC[C@H](C(=O)O)CC4)n3[C@H](C)Cc3ccccc3)c2C1` [Compound 44], the IC50 was 0.001 to 0.01 µM.

For the compound `COC(=O)N1CCc2ccc3c(nc(N4CCC(C(=O)O)CC4)n3[C@@H](C)Cc3cc(F)cc(F)c3)c2C1` [Compound 45], the IC50 lay in the range of 0.001 to 0.01 µM.

Regarding `COC(=O)N1CCc2ccc3c(nc(N4CCC(C(=O)O)CC4)n3[C@@H](C)Cn3cc(C(F)(F)F)cn3)c2C1` [Compound 46], the IC50 is 0.001 to 0.01 µM.

For the compound `COC(=O)N1CCc2ccc3c(nc(N4CCCCC4)n3C[C@@H](CC(=O)O)c3ccccc3)c2C1` [Compound 47], the IC50 lay in the range of 0.001 to 0.01 µM.

Consider `COC(=O)N1CCc2ccc3c(nc(C4CCCCC4)n3[C@@H](C)C[C@H]3CC[C@H](C(=O)O)CC3)c2C1` [Compound 48], for which the IC50 lay in the range of 0.001 to 0.01 µM.

As to `COC(=O)N1CCc2ccc3c(nc([C@H]4CC[C@@](C)(C(=O)O)CC4)n3[C@@H](C)Cc3ccccc3)c2C1` [Compound 49], the half-inhibitory concentration (IC50) lay in the range of 0.001 to 0.01 µM.

For the compound `COC(=O)N1CCc2c([C@@H]3CCOC3)cc3c(nc([C@H]4CC[C@H](C(=O)O)CC4)n3[C@@H](C)Cc3ccccc3)c2C1` [Compound 50], the IC50 lay in the range of 0.001 to 0.01 µM.

In the case of `COC(=O)N1CCc2ccc3c(nc([C@H]4CC[C@H](C(=O)O)CC4)n3[C@H](C)Cc3ccccc3F)c2C1` [Compound 51], the IC50 was in the range of 0.001 to 0.01 µM.

With `COC(=O)N1CCc2c(C#N)cc3c(nc([C@H]4CC[C@H](C(=O)O)CC4)n3[C@@H](C)Cc3ccccc3)c2C1` [Compound 52], the IC50 lay within 0.001 to 0.01 µM.

Take `COC(=O)N1CCc2ccc3c(nc([C@H]4CCCOC4)n3C[C@H](C(=O)O)c3ccc(C)cc3)c2C1` [Compound 53]: the 50% inhibitory concentration (IC50) lay within 0.001 to 0.01 µM.

Regarding `COC(=O)N1CCc2ccc3c(nc(N4CCN(C(=O)O)CC4)n3[C@H](C)Cc3ccccc3)c2C1` [Compound 54], the IC50 lay within 0.001 to 0.01 µM.

`COC(=O)N1CCc2ccc3c(nc(C4CCCC4)n3C[C@H](C(=O)O)c3ccccc3)c2C1` [Compound 55]: the IC50 was 0.001 to 0.01 µM.

Take `COC(=O)N1CCc2c(Cl)cc3c(nc(C4CCCCC4)n3C[C@@H](C(=O)O)c3ccccc3)c2C1` [Compound 56]: the IC50 fell in the range of 0.001 to 0.01 µM.

For `COC(=O)N1CCc2ccc3c(nc([C@H]4CC[C@H](C(=O)O)CC4)n3[C@@H](C)C[C@]3(C)CC[C@H](OC)CC3)c2C1` [Compound 57], the IC50 is 0.001 to 0.01 µM.

As to `COC(=O)N1CCc2ccc3c(nc([C@H]4CCCOC4)n3C[C@@H](C(=O)O)c3ccc(C)cc3)c2C1` [Compound 58], the IC50 was in the range of 0.001 to 0.01 µM.

For the compound `COC(=O)N1CCc2ccc3c(nc([C@H]4CC[C@@H](C(=O)O)C4)n3[C@H](C)Cc3ccccc3C)c2C1` [Compound 59], the IC50 was in the range of 0.001 to 0.01 µM.

Regarding `COC(=O)N1CCc2ccc3c(nc([C@H]4CCCOC4)n3C[C@@H](C(=O)O)c3ccccc3)c2C1` [Compound 61], the IC50 lay in the range of 0.001 to 0.01 µM.

Take `COC(=O)N1CCc2ccc3c(nc(C4CCN(C(C)=O)CC4)n3C[C@@H](C(=O)O)c3ccccc3)c2C1` [Compound 62]: the IC50 was in the range of 0.001 to 0.01 µM.

With `COC(=O)N1CCc2ccc3c(nc(N4CCC(C(=O)O)CC4)n3[C@@H](C)Cc3ccccc3C)c2C1` [Compound 63], the IC50 lay within 0.001 to 0.01 µM.

With `COC(=O)N1CCc2ccc3c(nc([C@H]4CC[C@@H](OC)CC4)n3C[C@@H](C(=O)O)c3ccccc3)c2C1` [Compound 64], the IC50 is 0.001 to 0.01 µM.

`COC(=O)N1CCc2ccc3c(nc([C@H]4CC[C@H](C(=O)O)CC4)n3[C@@H](C)Cc3ccc4c(c3)CCO4)c2C1` [Compound 65]: the IC50 was 0.001 to 0.01 µM.

On to `COC(=O)N1CCc2ccc3c(nc(N4CCN(S(C)(=O)=O)CC4)n3[C@@H](C)Cn3cc(Cl)cn3)c2C1` [Compound 66], for which the IC50 lay in the range of 0.001 to 0.01 µM.

On to `COC(=O)N1CCc2c(C(=O)O)cc3c(nc(C4CCCCC4)n3[C@@H](C)Cc3ccccc3)c2C1` [Compound 67], for which the IC50 is 0.001 to 0.01 µM.

As to `COC(=O)N1CCc2ccc3c(nc([C@H]4CC[C@H](C(=O)O)CC4)n3[C@H](C)C[C@H]3CC[C@@H](OC)CC3)c2C1` [Compound 68], the IC50 lay in the range of 0.001 to 0.01 µM.

Turning to `COC(=O)N1CCc2ccc3c(nc([C@H]4CC[C@H](C(=O)O)CC4)n3[C@@H](C)Cc3ccc(OC(F)F)cc3)c2C1` [Compound 69], the IC50 was 0.001 to 0.01 µM.

Turning to `COC(=O)N1CCc2ccc3c(nc(C4CCCCC4)n3C[C@H](CC(=O)O)c3ccc(F)c(F)c3)c2C1` [Compound 70], the IC50 is 0.001 to 0.01 µM.

For `COC(=O)N1CCc2ccc3c(nc([C@H]4CC[C@H](C(=O)O)CC4)n3[C@@H](C)Cc3cccc(F)c3F)c2C1` [Compound 71], the IC50 was 0.001 to 0.01 µM.

On to `COC(=O)N1CCc2ccc3c(nc([C@H]4CC[C@H](C(=O)O)CC4)n3[C@@H](C)Cc3ccccc3)c2C1` [Compound 72], for which the IC50 fell in the range of 0.001 to 0.01 µM.

Take `COC(=O)N1CCc2ccc3c(nc(N4CCC(C(=O)O)CC4)n3[C@@H](C)Cn3cc(Cl)cn3)c2C1` [Compound 73]: the IC50 lay in the range of 0.001 to 0.01 µM.

(Values after patent US20250188079A1, “INHIBITING CYCLIC AMP-RESPONSIVE ELEMENT-BINDING PROTEIN (CREB)” (Forma Therapeutics, Inc., priority 2019, published 2025).)
